From patent publication US11779573B2, “Crystalline forms of compounds for preventing or treating sensory hair cell death” (University of Washington, priority 2017, dated 2023)

Legend:
Format in all cases: physicochemical
[1] = Solubility in water of scaled-up salts of Compound B (salt screen)
Protocol: These slurry experiments were also performed at gram scale with 25 mg/mL Compound B in 20 mL ethyl acetate with 1 equivalent acid.

[2] = Solubility of Compound 1 in water, shake-flask method; conditions: thermodynamic from solid, visually determined at 20° C., water added stepwise to 10 mg
Protocol: Water was added stepwise to 10 mg of Compound 1, with 15 minutes in between additions, until complete dissolution was obtained.

[3] = Dynamic vapor sorption (DVS), hygroscopicity and XRPD before/after; conditions: for hygroscopicity / crystallinity / polymorphic form (XRPD) after DVS: mesylate; for crystallinity / polymorphic form (XRPD) after DVS: XRPD before and after DVS cycles of relative humidity
Protocol: DVS studies were performed using a Surface Measurement Systems Ltd. DVS-1 No Video. The sample, typically 20-30 mg, was loaded into a balance pan and equilibrated at 0% relative humidity (RH). After the material was dried, the RH was increased at 10% per step for 1 hour per increment, ending at 95% RH. After completion of the sorption cycle, the sample was dried using the same method, and the cycle was repeated. The software used for data collection was DVSWin v3.01 No Video. Data analysis was performed using DVS Standard Analysis Suite v6.3.0 (Standard).

For `CN1[C@H]2CC[C@@H]1c1c(sc(NC(=O)Nc3ccc(Cl)cc3)c1C(N)=O)C2.CS(=O)(=O)O` [Compound 1, (4R,7S)-2-(3-(4-chlorophenyl)ureido)-9-methyl-5,6,7,8-tetrahydro-4H-4,7-epiminocyclohepta[b]thiophene-3-carboxamide mesylate], the solubility [1] was 97 to 970 mg/mL, the solubility at 15 min [2] was over 97 mg/mL and the “total mass uptake in the first sorption cycle” value ([3]; DVS, 0% to 95% RH, first sorption cycle) was 1.8%. The “total mass uptake in the second cycle” value ([3]; DVS, 0% to 95% RH, second cycle) was 1.6%, the hygroscopicity ([3]; DVS, listed as mesylate salt) was “slightly hygroscopic at high humidity levels” and the hygroscopicity ([3]; DVS) was “slightly hygroscopic”. For the same compound, the “crystallinity / polymorphic form (XRPD) after DVS” value ([3]; listed as mesylate salt) was “remained unchanged” and the “crystallinity / polymorphic form (XRPD) after DVS” value [3] was “unchanged”.
